Assay: xn = mol fraction of the nth substance listed
Conditions: 101 kPa

CCOC(C)=O + COS(=O)(=O)[O-].Cn1cc[n+](C)c1
x1 = 1
Conditions | speed of sound [m/s]
293.15 K | 1162
303.15 K | 1111

CCCC[n+]1ccn(C)c1.F[P-](F)(F)(F)(F)F + CCC(C)=O
speed of sound [m/s]
Conditions | 293.15 K | 298.15 K | 303.15 K
x2 = 0 | 1455 | 1443 | 1431
x2 = 0.0509 | 1449 | 1438 | –
x2 = 0.0987 | 1444 | 1433 | 1419
x2 = 0.1907 | 1433 | 1421 | –
x2 = 0.2915 | 1418 | 1408 | 1393
x2 = 0.4057 | 1399 | 1390 | 1374
x2 = 0.5074 | 1380 | 1369 | 1349
x2 = 0.5956 | – | – | 1322
x2 = 0.7008 | – | – | 1292
x2 = 0.7919 | 1301 | 1286 | 1260
x2 = 0.8942 | 1265 | 1248 | 1220
x2 = 0.9467 | – | 1224 | 1195

COS(=O)(=O)[O-].Cn1cc[n+](C)c1 + CCC(C)=O
speed of sound [m/s]
Conditions | x1 = 0.0006 | x1 = 0.0012 | x1 = 0.0029 | x2 = 0 | x2 = 0.0257 | x2 = 0.0716 | x2 = 0.2017 | x2 = 0.2926
293.15 K | 1214 | – | 1217 | 1826 | 1819 | 1803 | 1750 | 1703
298.15 K | 1194 | 1195 | – | – | – | 1791 | 1737 | 1689
303.15 K | – | 1165 | 1168 | 1801 | – | – | 1724 | 1676

CCCCCC[n+]1ccn(C)c1.F[P-](F)(F)(F)(F)F + CC(C)O
speed of sound [m/s]
Conditions | x1 = 0.0011 | x1 = 0.0019 | x1 = 0.0024 | x2 = 0 | x2 = 0.0067 | x2 = 0.074 | x2 = 0.189 | x2 = 0.3042 | x2 = 0.3877 | x2 = 0.5107
293.15 K | 1157 | – | – | – | 1437 | 1427 | 1408 | 1388 | – | –
298.15 K | 1140 | 1141 | 1141 | 1424 | 1423 | 1413 | 1396 | 1375 | – | 1325
303.15 K | 1122 | 1124 | 1124 | 1411 | 1410 | – | 1383 | 1363 | 1346 | 1313

CCOC(C)=O + CCCCCCCC[n+]1ccn(C)c1.F[P-](F)(F)(F)(F)F
x1 = 1
Conditions | speed of sound [m/s]
298.15 K | 1141
303.15 K | 1111

CCC(C)=O + CCCC[n+]1ccn(C)c1.F[P-](F)(F)(F)(F)F
Conditions | speed of sound [m/s]
303.15 K, x1 = 1 | 1163

COS(=O)(=O)[O-].Cn1cc[n+](C)c1 + CC(C)O
speed of sound [m/s]
Conditions | 293.15 K | 298.15 K | 303.15 K
x2 = 0 | 1826 | 1813 | –
x2 = 0.0498 | 1807 | 1797 | 1785
x2 = 0.0958 | 1791 | 1777 | –
x2 = 0.2008 | – | 1729 | 1720
x2 = 0.3063 | 1684 | 1670 | 1662
x2 = 0.4013 | 1611 | 1605 | 1602
x2 = 0.4957 | 1525 | 1534 | 1534
x2 = 0.5945 | – | 1444 | 1459
x2 = 0.7039 | 1338 | 1352 | 1370
x2 = 0.8013 | 1269 | 1271 | 1292
x2 = 0.9019 | – | 1198 | 1207
x2 = 0.951 | – | 1167 | 1166

COS(=O)(=O)[O-].Cn1cc[n+](C)c1 + CCOC(C)=O
speed of sound [m/s]
Conditions | x2 = 0 | x2 = 0.0509 | x2 = 0.0706 | x2 = 0.0928 | x2 = 0.1254 | x2 = 0.1451
293.15 K | 1826 | 1808 | – | 1792 | 1775 | 1765
298.15 K | 1813 | 1795 | 1789 | 1778 | 1765 | 1752
303.15 K | 1801 | 1782 | 1777 | 1764 | 1746 | –

CCOC(C)=O + CCCC[n+]1ccn(C)c1.F[P-](F)(F)(F)(F)F
Conditions | speed of sound [m/s]
293.15 K, x1 = 1 | 1162

CC(C)O + COS(=O)(=O)[O-].Cn1cc[n+](C)c1
x1 = 1
Conditions | speed of sound [m/s]
293.15 K | 1156
303.15 K | 1121

CCCC[n+]1ccn(C)c1.F[P-](F)(F)(F)(F)F + CCOC(C)=O
speed of sound [m/s]
Conditions | 293.15 K | 298.15 K | 303.15 K
x2 = 0 | 1455 | 1443 | 1431
x2 = 0.0501 | 1447 | 1436 | 1420
x2 = 0.1003 | 1438 | 1427 | –
x2 = 0.1854 | 1421 | 1412 | 1401
x2 = 0.3 | – | 1391 | 1378
x2 = 0.4064 | 1379 | 1366 | 1354
x2 = 0.5117 | 1350 | – | –
x2 = 0.6032 | 1319 | 1310 | 1291
x2 = 0.7061 | 1280 | – | –
x2 = 0.802 | 1240 | 1228 | 1207
x2 = 0.9021 | – | 1180 | 1160
x2 = 0.948 | – | 1162 | 1137

CCCC[n+]1ccn(C)c1.F[P-](F)(F)(F)(F)F + CC(C)O
speed of sound [m/s]
Conditions | x1 = 0.0008 | x1 = 0.0011 | x2 = 0 | x2 = 0.0458 | x2 = 0.1055 | x2 = 0.1825 | x2 = 0.2864
293.15 K | 1156 | – | 1455 | – | 1441 | 1429 | 1409
298.15 K | 1139 | 1140 | 1443 | 1437 | 1429 | 1417 | 1397
303.15 K | – | 1122 | 1431 | 1425 | 1417 | 1405 | 1385

CCCCCCCC[n+]1ccn(C)c1.F[P-](F)(F)(F)(F)F + CCOC(C)=O
speed of sound [m/s]
Conditions | 293.15 K | 298.15 K | 303.15 K
x2 = 0 | 1424 | 1408 | 1393
x2 = 0.0048 | – | 1408 | –
x2 = 0.0967 | 1408 | 1393 | 1379
x2 = 0.1981 | 1391 | 1377 | 1364
x2 = 0.2967 | 1375 | 1361 | 1348
x2 = 0.3954 | 1358 | 1344 | 1330
x2 = 0.5056 | 1337 | 1323 | –
x2 = 0.6061 | 1315 | 1299 | 1284
x2 = 0.7059 | 1288 | 1271 | 1253
x2 = 0.8004 | – | 1236 | 1218
x2 = 0.9036 | 1209 | 1189 | 1169
x2 = 0.9453 | 1189 | – | 1147

CC(C)O + CCCC[n+]1ccn(C)c1.F[P-](F)(F)(F)(F)F
x1 = 1
Conditions | speed of sound [m/s]
293.15 K | 1156
303.15 K | 1121

CCC(C)=O + COS(=O)(=O)[O-].Cn1cc[n+](C)c1
x1 = 1
Conditions | speed of sound [m/s]
293.15 K | 1212
303.15 K | 1163

— a compilation of properties of binary mixtures (doi:10.1021/je060497d)
